Experimental data published in patent EP0096116B1, “Thiophene derivative having a mucoregulating and anticough activity, process for its preparation and pharmaceutical compositions containing it” (AUSONIA FARMACEUTICI S.r.l., priority 1982, dated 1983).

Columns and labels:
[1] = test system: tracheo-bronchial mucus from rabbits; experiment: Fluidifying activity in vivo, microviscosimeter on tracheo-bronchial mucus; conditions: 500 mg/kg/os, rabbit
Text: The fluidifying effect has been determined with the microviscosimeter on the tracheo-bronchial mucus from rabbits after administration by oral route, comparing I with sobrerol, at the doses hereinafter stated.

male Wistar rats = experiment: Bronchosecretogogue activity (Mawatari technique); type: in vivo, rat; conditions: 500 mg/kg/os, FlNa = Sodium fluoresceine
Text: The broncosecretogogue activity has been determined in male Wistar rats by per os administration according to the method of Mawatari [Mawatari H., Kagoshima Daigaku, Igaku-Zasshi, 27, 561 (1976)], comparing I with carboxymethylcysteine, sobrerol and guaiphenesin at the doses hereinafter stated.

[2] = Pharmacokinetic tests after oral administration; type: in vivo; conditions: oral administration of I and sobrerol in equimolar doses, in the animal
[3] = Solubility of the isolated compound; type: physicochemical
Text: 73 Grams of an oil, impossible to crystallize but perfectly pure in TLC, are obtained.

[4] = Acute toxicity (method of Litchfield and Wilcoxon), mouse; conditions: Swiss, in vivo
Text: (§1) The acute toxicity has been determined in Swiss mouses and in Wistar rats for different administration routes, according to the method of Litchfield J. T. and Wilcoxon [J. Pharm. Exp. Therap. 96,99-113 (1949)].

[5] = Acute toxicity (method of Litchfield and Wilcoxon), rat; conditions: Wistar, in vivo
Text: as §1

Compound	% Reduction of the mucus viscosity [1] [%]	% Increase of FlNa in comparison with controls (male Wistar rats) [%]	sobrerol concentrations at pulmonary level [2]	solubility in the common organic solvents ([3]; common organic solvents)	solubility in water ([3]; water)	LD50 ([4]; ip) [mg/kg]	LD50 ([4]; oral, os) [mg/kg]	LD50 ([5]; ip) [mg/kg]	LD50 ([5]; oral, os) [mg/kg]
CC1=CCC(C(C)(C)O)CC1O (centres unmarked) [Sobrerol, 2-methyl-5-(1-hydroxy-1-methyl-ethyl)-2-cyclohexen-1-ol, reference compound]	15.6	33.4	–	–	–	–	–	–	–
CC1=CCC(C(C)(C)O)CC1OC(=O)c1cccs1 (centres unmarked) [Compound I, thiophen-2-carboxylate of 2-methyl-5-(1-hydroxy-1-methylethyl)-cyclohexen-2-yl]	39.8	76.4	higher sobrerol concentrations at pulmonary level	soluble in the common organic solvents	almost insoluble in water	2500	> 4000	2650	> 4000
